Columns and labels:
[1] = test system: patients with severe to moderate hip osteoarthritis; experiment: three-year, randomized, double-blind, placebo-controlled study of radiological progression of hip osteoarthritis; assay type: in vivo, human
Source text: In order to further explore the potential usefulness of diacerein in the treatment of osteoarthritis, and to closely monitor the relevance of the effects of the treatment by using an accurate radiographic technique, the inventors carried out a 3-year, randomized, double-blind and placebo-controlled multicenter clinical trial in 507 patients with hip osteoarthritis. The unexpected result of the study was that diacerein has a beneficial effect as a structure-modifying treatment for osteoarthritis, as evidenced radiographically by a reduction of the destructive progression of hip osteoarthritis. The results of this study are reported in Dougados M., Nguyen M., Berdah L., Lequesne M., Mazières B., Vignon E. 1999; “Evaluation of the structural (radiological) effect of diacerein in osteoarthritis of the hip: a 3-year placebo controlled study”, Osteoarthritis and Cart 7, Suppl. A: 123, and are by reference thereto incorporated herein in their entirety.
In a three-year, randomized, double-blind, placebo-controlled study, 507 patients with severe to moderate hip osteoarthritis were assigned to receive either diacerein, 50 mg twice daily, or an identical placebo. The primary criterion of radiological progression of osteoarthritis was defined by a reduction in the joint space width or at least 0.5 mm during the study. The annual joint space narrowing rate (mm/year) was also determined in the patients who completed the treatment.
A total of 482 patients who had at least two radiographs were evaluated. Baseline characteristics of the 241 patients in each group were similar. In the placebo group, 62.7% of the patients had radiological progression, compared to 53.9% in the diacerein group (log-rank test: p=0.037). Treatment was followed for three years by 269 patients, among whom 55.1% in the placebo group and 41.2% in the diacerein group had radiological progression (log-rank test: p=0.007).

solubility of diacerein = assay type: physicochemical
[2] = test system: prostaglandin biosynthesis; conditions: cited from earlier work
[3] = test system: IL-1 and other cytokines (IL-6 and TNF); conditions: several studies in vitro and with animal models of osteoarthritis; cited from earlier work
osteoarthritis = conditions: after the start of the treatment; cited from earlier work

solubility in alcohol (solubility of diacerein; alcohol): virtually insoluble | solubility in water (solubility of diacerein; water): virtually insoluble
SMILES: CC(=O)Oc1cccc2c1C(=O)c1c(OC(C)=O)cc(C(=O)O)cc1C2=O [diacerein, diacetylrhein]
annual joint space narrowing rate ([1]; 269 patients who completed three years, diacerein 50 mg twice daily, placebo 0.23±0.23, p=0.042): 0.18±0.25 mm/year | patients with radiological progression (reduction in joint space width of at least 0.5 mm) ([1]; 269 patients who followed treatment for three years, diacerein 50 mg twice daily, placebo 55.1%, log-rank p=0.007): 41.2% | patients with radiological progression (reduction in joint space width of at least 0.5 mm) ([1]; 482 patients with at least two radiographs, 241 per group, diacerein 50 mg twice daily, placebo 62.7%, log-rank p=0.037): 53.9% | structure-modifying effect as compared to placebo ([1]; over the three-year period): statistically significant structure-modifying effect | inhibitory effect on the phospholiphase, cyclo-oxygenase or lipo-oxygenase pathways (prostaglandin biosynthesis) [2]: no inhibitory effect | inhibition of IL-1 and other cytokines (IL-6 and TNF) [3]: inhibit | time of onset of the effect (osteoarthritis): ≥ 4 weeks
